Measured values: the supplement of paper PMC3974653
Structures can show the parent of a compound that is named as a salt.

Tested on: MTT (mouse pheochromocytoma)
Assay: IC50 of cell viability (ATP content)
Conditions: (24 or 48 h)
In short: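 Each well of a white 1536-well plate received 5 µl of MTT mouse pheochromocytoma cells at 200,000 cells/ml in DMEM containing 5% FBS and 1% horse serum. After overnight culture at 37°C, 5% CO2, cells were exposed for 24 or 48 hrs to 23 nl of library compound in DMSO, pinned at 8 final concentrations from 0.5 nM to 46 µM. CellTiter-Glo luminescence was read after 15 minutes, and IC50 was obtained from a four-parameter logistic fit of signals normalised to positive-control and DMSO wells.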

Structure (SMILES)	IC50 of cell viability
Br.CC(N)Cc1ccc(O)cc1 (stereo not drawn) [HYDROXYAMPHETAMINE HYDROBROMIDE]	> 46 µM
N=C(N)c1ccc(/C=C/c2ccc(C(=N)N)cc2O)cc1 [HYDROXYSTILBAMIDINE ISETHIONATE]	> 46 µM
Nc1c2c(nc3ccccc13)CCCC2O (stereo not drawn) [HYDROXYTACRINE]	> 46 µM
CNC1CC(N)[C@H](O)[C@@H](O[C@@H]2OC(CO)C3OC4(OC(C(N)CO)C(O)C(O)C4O)O[C@@H]3[C@H]2O)C1O (stereo partly drawn) [HYGROMYCIN B]	> 46 µM
O=C1N\C=N/C2=C1[NH]C=N2 [HYPOXANTHINE]	> 46 µM
CC1(C)O[C@H]2C[C@@H]3[C@H]4CC\C5=C\C(=O)CC[C@@]5(C)[C@]4(F)[C@@H](O)C[C@]3(C)[C@]2(O1)C(=O)CCl [Halcinonide]	> 46 µM
CCCCN(CCCC)CC[C@H](O)c1cc2c(Cl)cc(Cl)cc2c2cc(C(F)(F)F)ccc12 [Halofantrine hydrochloride]	> 46 µM
FC(F)(F)C(Cl)Br (stereo not drawn) [Halothane]	> 46 µM
Cc1c(Cl)c(=O)oc2cc(OP(=O)(OCCCl)OCCCl)ccc12 [Haloxon]	> 46 µM
C[C@H]1CC[C@]2(OC1)O[C@@H]1C[C@@H]3[C@H]4CC[C@H]5C[C@@H](O)CC[C@]5(C)[C@@H]4CC(=O)[C@@]3(C)[C@H]1[C@@H]2C [Hecogenin]	> 46 µM
COc1ccc([C@@H]2CC(=O)c3c(O)cc(O[C@@H]4O[C@@H](CO[C@@H]5O[C@@H](C)[C@@H](O)[C@@H](O)[C@H]5O)[C@@H](O)[C@@H](O)[C@H]4O)cc3O2)cc1O [Hesperidin]	> 46 µM
CCCCCCCCCCCCCCCCN [Hetaflur]	> 46 µM
C[N+](C)(CCCCCC[N+](C)(C)C1c2ccccc2-c2ccccc21)C1c2ccccc2-c2ccccc21 [Hexafluorenium dibromide]	> 46 µM
CC[C@H](c1ccc(O)cc1)[C@@H](CC)c1ccc(O)cc1 [Hexestrol]	> 46 µM
CCCC[C@H](CC)CN1CN(C[C@@H](CC)CCCC)CC(C)(N)C1 [Hexetidine]	> 46 µM
CN1C(=O)NC(=O)C(C)(C2=CCCCC2)C1=O (stereo not drawn) [Hexobarbital]	> 46 µM
C[N+]1(C)CCN(C[C@@](O)(c2ccccc2)C2CCCCC2)CC1 [Hexocyclium methosulfate]	> 46 µM

Structure (SMILES)	IC50 of cell viability
CC1CC(OC(=O)c2ccccc2O)CC(C)(C)C1 (stereo not drawn) [Homosalate]	> 46 µM
NNc1nncc2ccccc12 [Hydralazine hydrochloride]	> 46 µM
C[C@]\12CCC(=O)\C=C1CC[C@H]3[C@@H]4CC[C@](O)(C(=O)COC(=O)CCC(O)=O)[C@@]4(C)C[C@H](O)[C@H]23 [Hydrocortisone 21-hemisuccinate sodium salt]	> 46 µM
CC(=O)OCC(=O)C1(O)CCC2C3CCC/4=C/C(=O)CCC4(C)C3C(O)CC12C (stereo not drawn) [Hydrocortisone acetate]	> 46 µM
COc1c2c(cc3c1OCO3)CCN(C)C2 [Hydrocotarnine hydrobromide]	> 46 µM
N[S+](=O)([O-])c1cc2c(cc1C(F)(F)F)NCN[S+]2(=O)[O-] [Hydroflumethiazide]	> 46 µM
Oc1ccc(O)cc1 [Hydroquinone]	> 46 µM
CN[C@H]1C[C@@H](N)[C@H](O)[C@@H](O[C@@H]2O[C@H](CO)[C@H](O)[C@@H]3O[C@]4(O[C@@H]23)O[C@H]([C@@H](N)CO)[C@H](O)[C@@H](O)[C@H]4O)[C@@H]1O [Hygromycin B]	> 46 µM
CC(=O)[C@]1(O)Cc2c(O)c3c(c(O)c2[C@@H](O[C@H]2C[C@H](N)[C@H](O)[C@H](C)O2)C1)C(=O)c1ccccc1C3=O [IDARUBICIN HYDROCHLORIDE]	> 46 µM
C1C\N=C(/N1)C2COC3=C(O2)C=CC=C3 (stereo not drawn) [IDAZOXAN]	> 46 µM
NC1=NC(=O)N2CC12 (stereo not drawn) [IMEXON]	> 46 µM
CCOC(=O)[C@H](CCc1ccccc1)N[C@@H](C)C(=O)N1C(=O)N(C)C[C@H]1C(=O)O [IMIDAPRIL HYDROCHLORIDE]	> 46 µM
CCn1ccnc1CC1COc2ccccc2O1 (stereo not drawn) [IMILOXAN]	> 46 µM
CN(C)CCCN1c2ccccc2CCc2ccccc21 [IMIPRAMINE]	> 46 µM
CC(C)=CCOC1=C2OC(=O)\C=C/C2=CC3=C1OC=C3 [IMPERATORIN]	> 46 µM
O=C1/C(=C2\Nc3ccccc3C2=O)Nc2ccccc21 [INDIGO]	> 46 µM
CC(C)(C)NC(=O)[C@@H]1CN(Cc2cccnc2)CCN1C[C@@H](O)C[C@@H](Cc1ccccc1)C(=O)N[C@H]1c2ccccc2C[C@H]1O [INDINAVIR SULFATE]	> 46 µM

Continued, values first:

IC50 of cell viability	Structure (SMILES)
> 46 µM	CCCCC(=O)O[C@@]1(CCC2C3CC\C4=C\C(=O)CCC4(C)C3C(O)CC12C)C(=O)CO (stereo partly drawn) [HYDROCORTISONE VALERATE]
> 46 µM	C[C@]\12CCC(=O)\C=C1CC[C@H]3[C@@H]4CC[C@](O)(C(=O)CO)[C@@]4(C)C[C@H](O)[C@H]23 [HYDROCORTISONE]
> 46 µM	CCN(CCO)CCCC(C)Nc1ccnc2cc(Cl)ccc12 (stereo not drawn) [HYDROXYCHLOROQUINE SULFATE]
> 46 µM	CC(CC=O)CCCC(C)(C)O (stereo not drawn) [HYDROXYCITRONELLAL]
> 46 µM	Cc1cccc(C(=O)O)c1O [HYDROXYTOLUIC ACID]
> 46 µM	NC(=O)NO [HYDROXYUREA]
> 46 µM	C[C@@H]1CC2[C@@H]3C[C@H](F)C4=CC(=O)C(Cl)=C[C@]4(C)[C@@]3(F)[C@H](O)C[C@]2(C)[C@@]1(O)C(=O)CO (stereo partly drawn) [Halometasona]
> 46 µM	CCCCCCCCCCCCCCCC(=O)OC(C)C [Hexadecanoic acid, 1-methylethyl ester]
> 46 µM	CCCCCCCCCCCCCCCC(=O)O [Hexadecanoic acid]
> 46 µM	CCCCCC(N)=O [Hexanamide]
> 46 µM	C[C@@H](CNC1CCCCC1)OC(=O)c1ccccc1 [Hexylcaine hydrochloride]
> 46 µM	CC(=O)[C@@]1(O)CC[C@H]2[C@@H]3CC\C4=C\C(=O)CC[C@]4(C)[C@H]3CC[C@]12C [Hidroxiprogesterona]
> 46 µM	O.O.O=S([O-])CO.[Na+] [Hydroxymethanesulfinic acid monosodium salt dihydrate]
> 46 µM	C\C1=C\C(=O)OC2=C1C=CC(=C2)O [Hymecromone]
> 46 µM	CCCCCN(C)CC[C@@](O)(P(=O)([O-])O)P(=O)(O)O [IBANDRONATE SODIUM]
> 46 µM	CC(C(O)c1ccc(O)cc1)N1CCC(Cc2ccccc2)CC1 (stereo not drawn) [IFENPRODIL]
> 46 µM	CNC(=O)[C@H](Cc1c[nH]c2ccccc12)NC(=O)[C@@H](CC(=O)NO)CC(C)C [ILOMASTATUM]
> 46 µM	Cc1ccc(NC(=O)c2ccc(CN3CCN(C)CC3)cc2)cc1Nc1nccc(-c2cccnc2)n1 [IMATINIB MESYLATE]
> 46 µM	CC1Cc2ccccc2N1NC(=O)c1ccc(Cl)c([S+](N)(=O)[O-])c1 (stereo not drawn) [INDAPAMIDE]
